Laboratory results from patent publication US7629318B2, “Immunosuppressant compounds, methods and uses related thereto” (priority 2002, dated 2009).
Where “and” joins values, the source holds several entries; their conditions need not be identical. Equal entries are not always repeated. Numbered stars: 1 amine (or outer) side, 2 acyl side, 3 side chain; on linkers, the order of the positions; unused ones are H or OH. Square brackets hold non-standard residues; d marks the D form. Peptide text beside a SMILES is read from it. * marks the point of attachment. Gly(1-amidinopiperidin-4-yl) = N=C(N)N1CCC([C@H](N)C(=O)O)CC1; X1 = CC(C)c1oc([C@H](CO)N[*:1])nc1C(=O)[*:2]; Pro(3R-Ph) = O=C(O)[C@H]1NCC[C@@H]1c1ccccc1; Tic = O=C(O)[C@@H]1Cc2ccccc2CN1; Cha = N[C@@H](CC1CCCCC1)C(=O)O; NMe(benzyl) = CN(Cc1ccccc1)*; Nle = CCCC[C@H](N)C(=O)O; X2 = OCCOCCN(Cc1ccccc1)*; NHBn = c1ccc(CN*)cc1

How the values were obtained:
[1] = system: T cell activation from 0401(DR4) chimeric MHCII-mice; test: In vivo inhibition of T cell activation by co-immunisation, DR4 mice immunised with HEL; set-up: species or system mouse; % Reduction of response to PPD(HEL): concentration or dose not given beside the values; conditions: for % Reduction of response to HEL: DR4 mice co-immunised with HEL plus compound, mean % inhibition from the control over 3 concentrations of antigen (6.7, 20 and 60 ug); for % Reduction of response to PPD(HEL): specificity control: response to PPD in the same cell pool, HEL co-immunised mice
Text: Mouse strains DR4 and DR14 carry chimeric MHC-II transgenes that encode the N-terminal domains of the respective DR molecules (forming the peptide binding site) and the remaining (2nd extracellular domains, transmembrane and intracytoplasmic domains) of the murine class II molecule I Ed. These strains are deficient of other murine class II, and thus, all helper T cell responses are triggered by peptides presented in the respective human MHC-II binding site. As an initial in vivo test of subject inhibitors designed to bind to DR, DR-transgenic mice were co-immunized with a pre-defined dose of protein antigen and different amounts of the compound antagonist to be tested. In this set-up, both antigen and compound were emulsified together in complete Freund's adjuvant (CFA), and thus, a direct competition between the two components for presentation by DR was tested. Readout of the assay is ex vivo antigen-specific activation of T cells from regional lymph nodes explanted 9 days after co-immunization. In a typical experiment, antigen dose-response was investigated, and the curves from mice immunized with antigen were compared to those from mice co-immunized with antigen+compound. The dose response curves were generated using lymph node cells pooled at equal numbers from 2-3 mice per experimental group. The experimental system also permits assessment of inherent antigenicity of the compound antagonist. This was done by setting up a dose-response study from the same cell pool using different concentrations of the compund under investigation instead of the antigen. As a specificity control, the response to Purified Protein Derivative (PPD), the major protein component of CFA, was tested in the same cell pool.
All Gpg conataining compounds have significant immunosupressive properties in one or both of the in-vivo models. Gpg-containing compounds also show improved activity or improved specificity over the Arg-containing equivilent. Further, compounds according to Formula I show activity in this assay.
Compounds of the invention were injected as an Emulsion prepared using CFA (Bacto Adjuvant Complete H37 Ra, Difco, Order-No. 3113-60); proteins 10 mg/ml in PBS, inhibitors 5 μM in 10% DMSO. CFA, PBS, antigen, and inhibitor were placed in the barrel of a 5-ml syringe (total volume not more than 1 mL). The mixture was sonicated at an amplitude less than 40% (30-35%) for two separated 15 s periods. The emulsion should seem to be hard and not liquid at this point. A drop of emulsion placed on the surface of water should not melt. The resulting emulsion was pushed through the needle into a 1 ml syringe with a needle (Gr.18, 26G×1″), and air bubbles were removed. Mice were co-immunized with 50 μg protein and 210 nM compound antagonist in final 100 μl emulsion into the tail base. Antigen+Compound and CFA are mixed 1:1 vol/vol. The best results are obtained using DR 4 mice immunised with HEL and DR 14 mice immunized with OVA.
Mice were injected at the tail-base as follows: Holding the tail of a mouse with thumb and middle finger, the index finger was placed under the base of the mouse's tail. The needle of the syringe was inserted about 1.5 cm from the tail base (hairy end) under the skin and pushed about 1 cm into the tail. 100 μl emulsion was injected into the mouse. After 9 days, mice were killed and lymph nodes removed.
The inhibitory effect of the candidate compounds on T-cell activation was tested using T-cells and antigen-presenting cells isolated from the lymph nodes of chimeric DR4-IE transgenic mice (Taconic, USA) previously co-immunized with hen egg lysozyme plus compound, or DR14-IE transgenic mice co-immunized with ovalbumin plus compound according to standard procedures (Adorini et al., 1988, Mueller et al., 1990; Current Protocols in Immunology, Vol. 2, 7.21; Ito et al., 1996). […]

[2] = Stability of compounds in mouse blood plasma; format: in vitro ADME
Procedure, shortened: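 Compounds at 5 μM final in rat, mouse or human plasma, incubated at 37 °C and sampled at 0, 6 and 24 h. Proteins precipitated with acetonitrile and the supernatant dried and reconstituted in 50% acetonitrile/0.1% TFA. PBS controls run for unstable compounds.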

[3] = system: T cell activation from 0404(DR14) chimeric MHCII-mice; test: In vivo inhibition of T cell activation by co-immunisation, DR14 mice immunised with OVA; set-up: species or system mouse; % Reduction of response to PPD(OVA): concentration or dose not given beside the values; conditions: for % Reduction of response to OVA: DR14 mice co-immunised with OVA plus compound, mean % inhibition from the control over 3 concentrations of antigen (6.7, 20 and 60 ug); for % Reduction of response to PPD(OVA): specificity control: response to PPD in the same cell pool, OVA co-immunised mice
Procedure, shortened: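 DR4 or DR14 chimeric MHC-II transgenic mice were co-immunised at the tail base with 50 μg HEL (DR4) or OVA (DR14) plus 210 nM compound, emulsified in CFA. After 9 days, pooled lymph node cells from 2–3 mice per group were tested for T-cell proliferation across an antigen dose range, compared with antigen-only immunisation; PPD served as a specificity control.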

[4] = system: T-cell proliferation, lymph node cells of chimeric 0401-IE transgenic mice; conditions: for Immunsupressive assays DR4-LN (Max) % Inhibition: maximal inhibition; for IC50: read-out: Immunsupressive assays DR4-LN (IC50); for Immunsupressive assays DR4-LN (Max) % Inhibition / IC50: DR4-LN; for immunosuppressive properties as measured by a T-cell activation assay: dose-response curves
Procedure, shortened: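 Antigen-primed lymph node cells (1.5×10^5/well) from mice lacking murine class II and carrying a chimeric human RA-associated class II transgene, cultured 3 days with ovalbumin at half-maximal dose plus compound (~0.1–200 uM) in serum-free HL-1. Proliferation read by 3H-thymidine incorporation over the final 16 h.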

[5] = system: HLA-DR1 transgenic mice, collagen induced arthritis; test: Collagen induced arthritis (CIA) mouse model for rheumatoid arthritis; format: in vivo; conditions: compared to solvent as control; s.c.
Protocol: CIA is induced by immunization with type II collagen in HLA-DR1 transgenic mice as described by Rosloniec et al (J. Exp. Med. 1997; 185: 113). After disease onset, mice are treated with compounds at the maximal tolerated dose s.c. for two weeks, and the disease development compared to that in mice treated with solvent only as follows:
Disease Severity Score • 1. Erythema and mild swelling confined to the tarsals or ankle joint • 2. Erythema and mild swelling extending from the ankle to the tarsals • 3. Erythema and moderate swelling extending from the ankle to the metatarsal joints • 4. Erythema and severe swelling encompass the ankle, foot, and digits

SMILES | % Reduction of response to HEL [1] [%] | % Reduction of response to PPD(HEL) [1] [%] | Stability (Arbitrary units) Mouse 6 h [2] [Arbitrary units] | % Reduction of response to OVA [3] [%] | % Reduction of response to PPD(OVA) [3] [%] | Immunsupressive assays DR4-LN (Max) % Inhibition [4] [%] | IC50 [4] | Stability (Arbitrary units) Mouse 24 h [2] [Arbitrary units] | efficacy in the CIA mouse model for rheumatoid arthritis [5] | immunosuppressive properties as measured by a T-cell activation assay, versus Arg equivalent ([4]; dose-response curve, compared to the Arg-containing peptide) | immunosuppressive properties as measured by a T-cell activation assay [4]
CCCC[C@H](NC(=O)[C@@H]1Cc2ccccc2CN1C(=O)[C@H](CCCNC(=N)N)NC(=O)[C@H](CC1CCCCC1)NC(C)=O)C(=O)N(C)Cc1ccccc1 [Compound P71, Ac-Cha-Arg-Tic-Nle-N(Me)Bn] (Ac-[Cha]R[Tic][Nle]-{NMe(benzyl)}) | 78.1 | 62.1 | 117 | 48.8 | 21.8 | 102 | 19 µM | – | – | – | –
CCCC[C@H](NC(=O)[C@@H]1Cc2ccccc2CN1C(=O)[C@@H](NC(=O)[C@H](CC1CCCCC1)NC(C)=O)C1CCN(C(=N)N)CC1)C(=O)N1CC[C@H](c2ccccc2)[C@H]1C(=O)N[C@@H](CO)c1nc(C(=O)N(C)C)c(C(C)C)o1 [Compound P53, Ac-Cha-Gpg-Tic-Nle-βPhPro-[S(oxaz)L]-NMe2] (Ac-[Cha][Gly(1-amidinopiperidin-4-yl)][Tic][Nle][Pro(3R-Ph)][X1]-NMe2) | 68.4 | 10.2 | 117 | 56.3 | 26.8 | 100 | 40 µM | 115 | Efficacy | improved immunosuppressive properties | immunosuppressive properties
CCCC[C@H](NC(=O)[C@@H]1Cc2ccccc2CN1C(=O)[C@@H](NC(=O)[C@H](CC1CCCCC1)NC(C)=O)C1CCN(C(=N)N)CC1)C(=O)N(CCOCCO)Cc1ccccc1 [Compound P101, Ac-Cha-Gpg-Tic-Nle-N(Bn)CH2CH2OCH2CH2OH] (Ac-[Cha][Gly(1-amidinopiperidin-4-yl)][Tic][Nle]-X2) | 49.7 | 41.1 | 107 | – | – | 100 | 69 µM and 66 µM | 94 | – | – | immunosuppressive properties
CSCC[C@H](NC(=O)[C@@H]1Cc2ccccc2CN1C(=O)[C@@H](NC(=O)[C@H](CC1CCCCC1)NC(C)=O)C1CCN(C(=N)N)CC1)C(=O)N(CCOCCO)Cc1ccccc1 [Compound P102, Ac-Cha-Gpg-Tic-Met-N(Bn)CH2CH2OCH2CH2OH] (Ac-[Cha][Gly(1-amidinopiperidin-4-yl)][Tic]M-X2) | 41.3 | 31.2 | 105 | – | – | 60 | 110 µM | 101 | – | – | –
CCCC[C@H](NC(=O)[C@@H]1Cc2ccccc2CN1C(=O)[C@@H](NC(=O)[C@H](CC1CCCCC1)NC(C)=O)C1CCN(C(=N)N)CC1)C(=O)NCc1ccccc1 [Compound P68, Ac-Cha-Gpg-Tic-Nle-N(H)Bn] (Ac-[Cha][Gly(1-amidinopiperidin-4-yl)][Tic][Nle]-NHBn) | −3.2 | 25.1 | 49 | 95.3 | 65.9 | 102 | 18 µM | 13 | – | – | –
